Like-named read-outs stand apart in the source and are kept apart here. Non-standard residues stand in square brackets, D forms with d. Residues, ends and D or L forms follow the SMILES beside them.
Key:
HIV-1 [1] = conditions: H9 cells
Experimental: Compounds (a), (b), (c), (d) were tested in the molarity range from 0.1 μM to 1000 μM. Infectivity tests were carried out as follows: an HIV-1 suspension containing 10^2 infectious units was absorbed on to 5×10^6 H9 cells in a volume of 1 ml for 2 hours at 4° C. After this time, 9 ml of tissue culture medium with the required inhibitor concentration was added. The medium was exchanged with fresh medium plus inhibitor daily. Two control cultures were also prepared, one without inhibitor to determine the normal virus replication rate, the other containing inhibitor but no virus, to determine whether the substances were cytotoxic for H9 cells. […] The amount of virus antigen produced by the infected cells was measured daily using Elisa for eight days, indicating the amount of HIV-1 antigen in the tissue culture medium. After this, the cells were pelleted, washed in medium without inhibitor, and further incubated in inhibitor-less medium. The antigen production was measured on days 9 and 12 (ie 1 and […] after removal of the inhibitor). Virus production was also measured on days 7, 8, 9, and 12 by determining the amount of reverse transcriptase in the supernatant of the cell medium.

HIV-1 [2] = system: HIV-1
[3] = 0,1 μM, day 9 post infection, no inhibitor (after removal)
[4] = 0,1 μM, day 12 post infection, no inhibitor (after removal)
[5] = 1 μM, day 9 post infection, no inhibitor (after removal)
[6] = 1 μM, day 12 post infection, no inhibitor (after removal)
[7] = 10 μM, day 9 post infection, no inhibitor (after removal)
[8] = 10 μM, day 12 post infection, no inhibitor (after removal)
[9] = 100 μM, day 9 post infection, no inhibitor (after removal)
[10] = 100 μM, day 12 post infection, no inhibitor (after removal)
[11] = 1000 μM, day 9 post infection, no inhibitor (after removal)
[12] = 1000 μM, day 12 post infection, no inhibitor (after removal)

For `CC(C)C[C@@H](NC(=O)[C@H](N)CC(N)=O)C(=O)N[C@@H](C(=O)NCC(=O)O)[C@H](C)O` [A, H-(D)-Asn-(D)-Leu-(D)-Thr-Gly-OH] (H-[dN][dL][dT]G-OH), the “HIV-1 antigen production as measured in antigen capture ELISA” value (“HIV-1 antigen production as measured” for short) (HIV-1 [1]; 0,1 μM, day 1 post infection) was 0,060 o. D, the “HIV-1 antigen production as measured” value (HIV-1 [1]; 0,1 μM, day 2 post infection) was 0,066 o. D and the “HIV-1 antigen production as measured” value (HIV-1 [1]; 0,1 μM, day 3 post infection) was 0,062 o. D. The “HIV-1 antigen production as measured” value (HIV-1 [1]; 0,1 μM, day 4 post infection) was 0,055 o. D, the “HIV-1 antigen production as measured” value (HIV-1 [1]; 0,1 μM, day 5 post infection) was 0,058 o. D and the “HIV-1 antigen production as measured” value (HIV-1 [1]; 0,1 μM, day 6 post infection) was 0,181 o. D. The “HIV-1 antigen production as measured” value (HIV-1 [1]; 0,1 μM, day 7 post infection) was 0,363 o. D, the “HIV-1 antigen production as measured” value (HIV-1 [1]; 0,1 μM, day 8 post infection) was 0,478 o. D and the “HIV-1 antigen production as measured” value (HIV-1 [1]; [3]) was 0,737 o. D. The “HIV-1 antigen production as measured” value (HIV-1 [1]; [4]) was 1,037 o. D, the “HIV-1 antigen production as measured” value (HIV-1 [1]; 1 μM, day 1 post infection) was 0,064 o. D and the “HIV-1 antigen production as measured” value (HIV-1 [1]; 1 μM, day 2 post infection) was 0,060 o. D. The “HIV-1 antigen production as measured” value (HIV-1 [1]; 1 μM, day 3 post infection) was 0,075 o. D, the “HIV-1 antigen production as measured” value (HIV-1 [1]; 1 μM, day 4 post infection) was 0,057 o. D and the “HIV-1 antigen production as measured” value (HIV-1 [1]; 1 μM, day 5 post infection) was 0,053 o. D. For the same compound, the “HIV-1 antigen production as measured” value (HIV-1 [1]; 1 μM, day 6 post infection) was 0,136 o. D, the “HIV-1 antigen production as measured” value (HIV-1 [1]; 1 μM, day 7 post infection) was 0,213 o. D and the “HIV-1 antigen production as measured” value (HIV-1 [1]; 1 μM, day 8 post infection) was 0,394 o. D. For the same compound, the “HIV-1 antigen production as measured” value (HIV-1 [1]; [5]) was 0,694 o. D, the “HIV-1 antigen production as measured” value (HIV-1 [1]; [6]) was 1,065 o. D and the “HIV-1 antigen production as measured” value (HIV-1 [1]; 10 μM, day 1 post infection) was 0,061 o. D. For the same compound, the “HIV-1 antigen production as measured” value (HIV-1 [1]; 10 μM, day 2 post infection) was 0,075 o. D, the “HIV-1 antigen production as measured” value (HIV-1 [1]; 10 μM, day 3 post infection) was 0,069 o. D and the “HIV-1 antigen production as measured” value (HIV-1 [1]; 10 μM, day 4 post infection) was 0,044 o. D. The “HIV-1 antigen production as measured” value (HIV-1 [1]; 10 μM, day 5 post infection) was 0,064 o. D, the “HIV-1 antigen production as measured” value (HIV-1 [1]; 10 μM, day 6 post infection) was 0,140 o. D and the “HIV-1 antigen production as measured” value (HIV-1 [1]; 10 μM, day 7 post infection) was 0,256 o. D. The “HIV-1 antigen production as measured” value (HIV-1 [1]; 10 μM, day 8 post infection) was 0,499 o. D, the “HIV-1 antigen production as measured” value (HIV-1 [1]; [7]) was 0,727 o. D and the “HIV-1 antigen production as measured” value (HIV-1 [1]; [8]) was 1,003 o. D. For the same compound, the “HIV-1 antigen production as measured” value (HIV-1 [1]; 100 μM, day 1 post infection) was 0,068 o. D, the “HIV-1 antigen production as measured” value (HIV-1 [1]; 100 μM, day 2 post infection) was 0,064 o. D and the “HIV-1 antigen production as measured” value (HIV-1 [1]; 100 μM, day 3 post infection) was 0,065 o. D. For the same compound, the “HIV-1 antigen production as measured” value (HIV-1 [1]; 100 μM, day 4 post infection) was 0,053 o. D, the “HIV-1 antigen production as measured” value (HIV-1 [1]; 100 μM, day 5 post infection) was 0,057 o. D and the “HIV-1 antigen production as measured” value (HIV-1 [1]; 100 μM, day 6 post infection) was 0,070 o. D. The “HIV-1 antigen production as measured” value (HIV-1 [1]; 100 μM, day 7 post infection) was 0,361 o. D, the “HIV-1 antigen production as measured” value (HIV-1 [1]; 100 μM, day 8 post infection) was 0,374 o. D and the “HIV-1 antigen production as measured” value (HIV-1 [1]; [9]) was 0,915 o. D. The “HIV-1 antigen production as measured” value (HIV-1 [1]; [10]) was 1,013 o. D, the “HIV-1 antigen production as measured” value (HIV-1 [1]; 1000 μM, day 1 post infection) was 0,087 o. D and the “HIV-1 antigen production as measured” value (HIV-1 [1]; 1000 μM, day 2 post infection) was 0,058 o. D. For the same compound, the “HIV-1 antigen production as measured” value (HIV-1 [1]; 1000 μM, day 3 post infection) was 0,073 o. D, the “HIV-1 antigen production as measured” value (HIV-1 [1]; 1000 μM, day 4 post infection) was 0,054 o. D and the “HIV-1 antigen production as measured” value (HIV-1 [1]; 1000 μM, day 5 post infection) was 0,056 o. D. For the same compound, the “HIV-1 antigen production as measured” value (HIV-1 [1]; 1000 μM, day 6 post infection) was 0,102 o. D, the “HIV-1 antigen production as measured” value (HIV-1 [1]; 1000 μM, day 7 post infection) was 0,286 o. D and the “HIV-1 antigen production as measured” value (HIV-1 [1]; 1000 μM, day 8 post infection) was 0,597 o. D. The “HIV-1 antigen production as measured” value (HIV-1 [1]; [11]) was 0,899 o. D, the “HIV-1 antigen production as measured” value (HIV-1 [1]; [12]) was 1,054 o. D and the “Reverse Transkriptase Determination” value (HIV-1 [2]; 0,1 μM, day 7 post infection) was 3929 epm/ml. For the same compound, the “Reverse Transkriptase Determination” value (HIV-1 [2]; 0,1 μM, day 8 post infection) was 6914 epm/ml, the “Reverse Transkriptase Determination” value (HIV-1 [2]; [3]) was 14455 epm/ml and the “Reverse Transkriptase Determination” value (HIV-1 [2]; [4]) was 137470 epm/ml. For the same compound, the “Reverse Transkriptase Determination” value (HIV-1 [2]; 1 μM, day 7 post infection) was 4041 epm/ml, the “Reverse Transkriptase Determination” value (HIV-1 [2]; 1 μM, day 8 post infection) was 7460 epm/ml and the “Reverse Transkriptase Determination” value (HIV-1 [2]; [5]) was 9502 epm/ml. The “Reverse Transkriptase Determination” value (HIV-1 [2]; [6]) was 163130 epm/ml, the “Reverse Transkriptase Determination” value (HIV-1 [2]; 10 μM, day 7 post infection) was 4615 epm/ml and the “Reverse Transkriptase Determination” value (HIV-1 [2]; 10 μM, day 8 post infection) was 5381 epm/ml. The “Reverse Transkriptase Determination” value (HIV-1 [2]; [7]) was 12517 epm/ml, the “Reverse Transkriptase Determination” value (HIV-1 [2]; [8]) was 117910 epm/ml and the “Reverse Transkriptase Determination” value (HIV-1 [2]; 100 μM, day 7 post infection) was 5378 epm/ml. The “Reverse Transkriptase Determination” value (HIV-1 [2]; 100 μM, day 8 post infection) was 6407 epm/ml, the “Reverse Transkriptase Determination” value (HIV-1 [2]; [9]) was 12893 epm/ml and the “Reverse Transkriptase Determination” value (HIV-1 [2]; [10]) was 142240 epm/ml. For the same compound, the “Reverse Transkriptase Determination” value (HIV-1 [2]; 1000 μM, day 7 post infection) was 1529 epm/ml, the “Reverse Transkriptase Determination” value (HIV-1 [2]; 1000 μM, day 8 post infection) was 2121 epm/ml and the “Reverse Transkriptase Determination” value (HIV-1 [2]; [11]) was 1550 epm/ml. For the same compound, the “Reverse Transkriptase Determination” value (HIV-1 [2]; [12]) was 104660 epm/ml.

— patent US5674979A, “Agent for inhibiting symmetrical proteins, in particular enzymes” (priority 1989, dated 1997)
